Source: patent publication US20230002372A1, “AZAINDOLE CARBOXAMIDE COMPOUNDS FOR THE TREATMENT OF MYCOBACTERIAL INFECTIONS” (THE GLOBAL ALLIANCE FOR TB DRUG DEVELOPMENT, INC., priority 2019, published 2023)
≈ marks a conversion by molar mass, not a printed value.

The molecules below were run on M tb H37Rv (assay: MIC determination against M tb H37Rv (green fluorescent protein reporter assay; MIC-MABA)). Settings: M. tb H37Rv; 7H9 broth; 10 days exposure; MIC = lowest concentration inhibiting fluorescence by 90%.
Format: cell-based, Mycobacterium tuberculosis

SMILES | M. TB H37Rv: MIC-MABA: MIC [µg/mL]
Cc1cc(F)c2cc(C(=O)N[C@H]3C[C@H]4C[C@@H]([C@@H]3C)C4(C)C)[nH]c2n1 [MPL-043, 4-fluoro-6-methyl-N-[(1S,2S,3S,5R)-2,6,6-trimethylnorpinan-3-yl]-1H-pyrrolo[2,3-b]pyridine-2-carboxamide] | 0.17

Same assay, conditions: Mycobacterium tuberculosis, H37RV, 240 h, read-out: M. TB H37Rv: MIC-MABA: MIC, M. tb H37Rv; 7H9 broth; 10 days exposure; MIC = lowest concentration inhibiting fluorescence by 90%

SMILES | MIC [µg/mL]
O=C(NC1CC2CCC(C2)C1)c1cc2c(Cl)cncc2[nH]1 (centres unmarked) [MPL-166, N-(3-bicyclo[3.2.1]octanyl)-4-chloro-1H-pyrrolo[2,3-c]pyridine-2-carboxamide] | 0.39 (≈ 1.28 µM)
Cc1nc2[nH]c(C(=O)NC3CCC[Si](C)(C)CCC3)cc2c(F)c1F [MPL-301, N-(1,1-dimethylsilocan-5-yl)-4,5-difluoro-6-methyl-1H-pyrrolo[2,3-b]pyridine-2-carboxamide] | 0.015 (≈ 0.041 µM)
O=C(NC12CCC(CC1)CC2)c1cc2c(Cl)cncc2[nH]1 [MPL-170, N-(4-bicyclo[2.2.2]octanyl)-4-chloro-1H-pyrrolo[2,3-c]pyridine-2-carboxamide] | 0.1 (≈ 0.329 µM)
CC1(C)C2CCC1(C)C(NC(=O)c1cc3c(Cl)cncc3[nH]1)C2 (centres unmarked) [MPL-189, 4-chloro-N-(1,7,7-trimethylnorbornan-2-yl)-1H-pyrrolo[2,3-c]pyridine-2-carboxamide] | 0.095 (≈ 0.286 µM)
COc1ccc2cc(C(=O)NC3CC[Si]4(CCCC4)CC3)[nH]c2n1 [MPL-454, 6-methoxy-N-(5-silaspiro[4.5]decan-8-yl)-1H-pyrrolo[2,3-b]pyridine-2-carboxamide] | 0.458 (≈ 1.33 µM)
C[C@@H]1[C@@H](NC(=O)c2cc3c(C#N)ccnc3[nH]2)C[C@H]2C[C@@H]1C2(C)C [MPL-013, 4-cyano-N-[(1S,2S,3S,5R)-2,6,6-trimethylnorpinan-3-yl]-1H-pyrrolo[2,3-b]pyridine-2-carboxamide] | 1.2 (≈ 3.72 µM)
C[Si]1(C)CCC(NC(=O)c2cc3c(F)c(C(F)(F)F)ncc3[nH]2)CC1 [MPL-322, N-(1,1-dimethylsilinan-4-yl)-4-fluoro-5-(trifluoromethyl)-1H-pyrrolo[2,3-c]pyridine-2-carboxamide] | 0.484 (≈ 1.3 µM)
C[Si]1(C)CCC(NC(=O)c2cc3c(F)c(Cl)ncc3[nH]2)CC1 [MPL-345, 5-chloro-N-(1,1-dimethylsilinan-4-yl)-4-fluoro-1H-pyrrolo[2,3-c]pyridine-2-carboxamide] | 0.498 (≈ 1.47 µM)
Cc1nc2[nH]c(C(=O)NC3CC[Si]4(CCCCC4)CC3)cc2c(F)c1F [MPL-285, 4,5-difluoro-6-methyl-N-(6-silaspiro[5.5]undecan-3-yl)-1H-pyrrolo[2,3-b]pyridine-2-carboxamide] | 0.016 (≈ 0.0424 µM)
O=C(NC1CCCCCCC1)c1cc2c(F)cncc2[nH]1 [MPL-093, N-cyclooctyl-4-fluoro-1H-pyrrolo[2,3-c]pyridine-2-carboxamide] | 1.1 (≈ 3.8 µM)
O=C(NC1CCC2(CC1)CC2(F)F)c1cc2c(Cl)cncc2[nH]1 (centres unmarked) [MPL-164, 4-chloro-N-(1,1-difluorospiro[2.5]octan-6-yl)-1H-pyrrolo[2,3-c]pyridine-2-carboxamide] | 0.35 (≈ 1.03 µM)
Cc1ccnc2[nH]c(C(=O)N[C@H]3C[C@H]4C[C@@H]([C@@H]3C)C4(C)C)cc12 [MPL-016, 4-methyl-N-[(1S,2S,3S,5R)-2,6,6-trimethylnorpinan-3-yl]-1H-pyrrolo[2,3-b]pyridine-2-carboxamide] | 0.38 (≈ 1.22 µM)
Cc1c(C(F)(F)F)ncc2[nH]c(C(=O)NC3CC[Si](C)(C)CC3)cc12 [MPL-376, N-(1,1-dimethylsilinan-4-yl)-4-methyl-5-(trifluoromethyl)-1H-pyrrolo[2,3-c]pyridine-2-carboxamide] | 0.188 (≈ 0.509 µM)
C[Si]1(C)CCCC(NC(=O)c2cc3c(F)c(C(F)(F)F)ncc3[nH]2)CC1 (centres unmarked) [MPL-366, N-(1,1-dimethylsilepan-4-yl)-4-fluoro-5-(trifluoromethyl)-1H-pyrrolo[2,3-c]pyridine-2-carboxamide] | 0.492 (≈ 1.27 µM)
O=C(NC1CC2CCC(C2)C1)c1cc2c(F)ccnc2[nH]1 (centres unmarked) [MPL-157, N-(3-bicyclo[3.2.1]octanyl)-4-fluoro-1H-pyrrolo[2,3-b]pyridine-2-carboxamide] | 2.6 (≈ 9.05 µM)
CC1(C)[C@H]2C[C@H](NC(=O)c3cc4c(F)c(F)cnc4[nH]3)[C@](C)(O)[C@@H]1C2 [MPL-219, 4,5-difluoro-N-[(1R,2R,3S,5R)-2-hydroxy-2,6,6-trimethyl-norpinan-3-yl]-1H-pyrrolo[2,3-b]pyridine-2-carboxamide] | 0.9 (≈ 2.58 µM)
Cc1nc2[nH]c(C(=O)N[C@H]3C[C@H]4C[C@@H]([C@@H]3C)C4(C)C)cc2c(F)c1Cl [MPL-068, 5-chloro-4-fluoro-6-methyl-N-[(1S,2S,3S,5R)-2,6,6-trimethylnorpinan-3-yl]-1H-pyrrolo[2,3-b]pyridine-2-carboxamide] | 0.046 (≈ 0.126 µM)
O=C(NC1CC[Si]2(CCCCC2)CC1)c1cc2cc(-c3ccccc3F)cnc2[nH]1 [MPL-434, 5-(2-fluorophenyl)-N-(6-silaspiro[5.5]undecan-3-yl)-1H-pyrrolo[2,3-b]pyridine-2-carboxamide] | 0.061 (≈ 0.145 µM)
Cc1cc2cc(C(=O)N[C@H]3C[C@H]4C[C@@H]([C@@H]3C)C4(C)C)[nH]c2nc1C [MPL-070, 5,6-dimethyl-N-((1S,2S,3S,5R)-2,6,6-trimethylbicyclo[3.1.1]heptan-3-yl)-1H-pyrrolo[2,3-b]pyridine-2-carboxamide] | 0.49 (≈ 1.51 µM)
Cc1cc(F)c2cc(C(=O)N[C@H]3C[C@H]4C[C@@H]([C@@H]3C)C4(C)C)[nH]c2n1 [MPL-043, 4-fluoro-6-methyl-N-[(1S,2S,3S,5R)-2,6,6-trimethylnorpinan-3-yl]-1H-pyrrolo[2,3-b]pyridine-2-carboxamide] | 0.14 (≈ 0.425 µM)

SMILES | MIC [µg/mL]
C[C@@H]1[C@@H](NC(=O)c2cc3c(C#N)cncc3[nH]2)C[C@H]2C[C@@H]1C2(C)C [MPL-095, 4-cyano-N-[(1S,2S,3S,5R)-2,6,6-trimethylnorpinan-3-yl]-1H-pyrrolo[2,3-c]pyridine-2-carboxamide] | 1.5 (≈ 4.65 µM)
Cc1nc2[nH]c(C(=O)N[C@@H]3CCC[Si](C)(C)CC3)cc2c(F)c1F (single isomer, unassigned) [MPL-282A] | 0.051 (≈ 0.145 µM)
COc1ccc2cc(C(=O)NC3CCC[Si](C)(C)CC3)[nH]c2n1 (centres unmarked) [MPL-466, N-(1,1-dimethylsilepan-4-yl)-6-methoxy-1H-pyrrolo[2,3-b]pyridine-2-carboxamide] | 0.119 (≈ 0.359 µM)
C[Si]1(C)CCCC(NC(=O)c2cc3c(Cl)c(Cl)ncc3[nH]2)CC1 (centres unmarked) [MPL-350, 4,5-dichloro-N-(1,1-dimethylsilepan-4-yl)-1H-pyrrolo[2,3-c]pyridine-2-carboxamide] | 0.247 (≈ 0.667 µM)
Cc1nc(F)cc2cc(C(=O)N[C@H]3C[C@H]4C[C@@H]([C@@H]3C)C4(C)C)[nH]c12 [MPL-134, 5-fluoro-7-methyl-N-[(1S,2S,3S,5R)-2,6,6-trimethylnorpinan-3-yl]-1H-pyrrolo[2,3-c]pyridine-2-carboxamide] | 3.1 (≈ 9.41 µM)
COc1ccnc2[nH]c(C(=O)N[C@H]3C[C@H]4C[C@@H]([C@@H]3C)C4(C)C)cc12 [MPL-014, 4-methoxy-N-[(1S,2S,3S,5R)-2,6,6-trimethylnorpinan-3-yl]-1H-pyrrolo[2,3-b]pyridine-2-carboxamide] | 5.4 (≈ 16.5 µM)
CC1(C)CCC(NC(=O)c2cc3c(C#N)cncc3[nH]2)CC1 [MPL-097, 4-cyano-N-(4,4-dimethylcyclohexyl)-1H-pyrrolo[2,3-c]pyridine-2-carboxamide] | 0.16 (≈ 0.54 µM)
Cc1ncc2[nH]c(C(=O)NC3CC[Si](C)(C)CC3)cc2c1F [MPL-318, N-(1,1-dimethylsilinan-4-yl)-4-fluoro-5-methyl-1H-pyrrolo[2,3-c]pyridine-2-carboxamide] | 0.134 (≈ 0.419 µM)
Cc1cc(C)c2cc(C(=O)NC3CCC(C)(C)CC3)[nH]c2n1 [MPL-019, N-(4,4-dimethylcyclohexyl)-4,6-dimethyl-1H-pyrrolo[2,3-b]pyridine-2-carboxamide] | 9 (≈ 30.1 µM)
C[Si]1(C)CCCC(NC(=O)c2cc3c(F)c(Cl)ncc3[nH]2)CC1 (centres unmarked) [MPL-346, 5-chloro-N-(1,1-dimethylsilepan-4-yl)-4-fluoro-1H-pyrrolo[2,3-c]pyridine-2-carboxamide] | 0.464 (≈ 1.31 µM)
N#Cc1ccnc2[nH]c(C(=O)NC3CCCCCCC3)cc12 [MPL-036, 4-cyano-N-cyclooctyl-1H-pyrrolo[2,3-b]pyridine-2-carboxamide] | 0.08 (≈ 0.27 µM)
Cc1ncc2[nH]c(C(=O)NC3CC[Si]4(CCCC4)CC3)cc2c1F [MPL-319, 4-fluoro-5-methyl-N-(5-silaspiro[4.5]decan-8-yl)-1H-pyrrolo[2,3-c]pyridine-2-carboxamide] | 0.499 (≈ 1.44 µM)
CC1(C)C=CC(NC(=O)c2cc3c(F)ccnc3[nH]2)CC1 (centres unmarked) [MPL-160, N-(4,4-dimethylcyclohex-2-en-1-yl)-4-fluoro-1H-pyrrolo[2,3-b]pyridine-2-carboxamide] | 0.77 (≈ 2.68 µM)
C[C@@H]1[C@@H](NC(=O)c2cc3cc(Cl)c(F)nc3[nH]2)C[C@H]2C[C@@H]1C2(C)C [MPL-064, 5-chloro-6-fluoro-N-[(1S,2S,3S,5R)-2,6,6-trimethylnorpinan-3-yl]-1H-pyrrolo[2,3-b]pyridine-2-carboxamide] | 0.16 (≈ 0.457 µM)
O=C(NC1CCC2(CC1)CC2)c1cc2c(Cl)cncc2[nH]1 [MPL-163, 4-chloro-N-spiro[2.5]octan-6-yl-1H-pyrrolo[2,3-c]pyridine-2-carboxamide] | 0.64 (≈ 2.11 µM)
O=C(NC1CCCCCCC1)c1cc2c(Cl)ccnc2[nH]1 [MPL-033, 4-chloro-N-cyclooctyl-1H-pyrrolo[2,3-b]pyridine-2-carboxamide] | 0.038 (≈ 0.124 µM)
Cc1cc(Cl)c2cc(C(=O)N[C@@H]3CC[Si](C)(C)C3)[nH]c2n1 (single isomer, unassigned) [MPL-401A] | 0.319 (≈ 0.991 µM)
Cc1c(C(=O)N[C@H]2C[C@H]3C[C@@H]([C@@H]2C)C3(C)C)[nH]c2nccc(F)c12 [MPL-174, 4-fluoro-3-methyl-N-[(1S,2S,3S,5R)-2,6,6-trimethylnorpinan-3-yl]-1H-pyrrolo[2,3-b]pyridine-2-carboxamide] | 0.19 (≈ 0.577 µM)
COc1ncc2[nH]c(C(=O)NC3CC[Si](C)(C)CC3)cc2c1C(F)(F)F [MPL-452, N-(1,1-dimethylsilinan-4-yl)-5-methoxy-4-(trifluoromethyl)-1H-pyrrolo[2,3-c]pyridine-2-carboxamide] | 0.118 (≈ 0.306 µM)
C[C@@H]1[C@@H](NC(=O)c2cc3c(F)c(Cl)ncc3[nH]2)C[C@H]2C[C@@H]1C2(C)C [MPL-138, 5-chloro-4-fluoro-N-[(1S,2S,3S,5R)-2,6,6-trimethylnorpinan-3-yl]-1H-pyrrolo[2,3-c]pyridine-2-carboxamide] | 2.9 (≈ 8.29 µM)
